In ChEMBL document CHEMBL5252536, “Discovery of VU0467485/AZ13713945: An M4 PAM Evaluated as a Preclinical Candidate for the Treatment of Schizophrenia” (ACS Med Chem Lett, 2017):

Experiments:
[1] = target: T1, Muscarinic acetylcholine receptor M2 (Homo sapiens, UniProt P08172); assay: Positive allosteric modulator activity at human M2 receptor expressed in CHO cells co-expressing Gqi5 assessed as maximal response to ACh by calcium mobilization assay; assay type: cell-based
T1 sequence (P08172 whole entry): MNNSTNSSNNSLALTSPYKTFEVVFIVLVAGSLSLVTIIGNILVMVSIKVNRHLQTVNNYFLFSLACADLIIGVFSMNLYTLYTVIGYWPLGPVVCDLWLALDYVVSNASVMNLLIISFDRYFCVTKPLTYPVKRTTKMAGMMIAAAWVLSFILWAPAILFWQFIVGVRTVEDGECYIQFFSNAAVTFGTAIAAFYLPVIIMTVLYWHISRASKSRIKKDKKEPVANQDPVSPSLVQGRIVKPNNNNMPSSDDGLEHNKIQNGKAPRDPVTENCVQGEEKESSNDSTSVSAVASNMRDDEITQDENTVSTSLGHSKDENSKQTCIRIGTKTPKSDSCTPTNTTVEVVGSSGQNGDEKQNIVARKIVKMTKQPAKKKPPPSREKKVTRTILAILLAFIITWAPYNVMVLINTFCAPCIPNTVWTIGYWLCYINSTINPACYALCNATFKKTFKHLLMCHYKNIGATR

Cytochrome P450 3A4 = Cytochrome P450 3A4 (Homo sapiens, UniProt P08684); assay: […] of human CYP3A4 mediated drug metabolism incubated for 5 mins followed by NADPH addition measured after 1 hr by LC-UV/MS analysis relative to control; assay type: ADME; conditions: recombinant enzyme, 1.083 h, time 65 min
Sequence of Cytochrome P450 3A4 (P08684 whole entry): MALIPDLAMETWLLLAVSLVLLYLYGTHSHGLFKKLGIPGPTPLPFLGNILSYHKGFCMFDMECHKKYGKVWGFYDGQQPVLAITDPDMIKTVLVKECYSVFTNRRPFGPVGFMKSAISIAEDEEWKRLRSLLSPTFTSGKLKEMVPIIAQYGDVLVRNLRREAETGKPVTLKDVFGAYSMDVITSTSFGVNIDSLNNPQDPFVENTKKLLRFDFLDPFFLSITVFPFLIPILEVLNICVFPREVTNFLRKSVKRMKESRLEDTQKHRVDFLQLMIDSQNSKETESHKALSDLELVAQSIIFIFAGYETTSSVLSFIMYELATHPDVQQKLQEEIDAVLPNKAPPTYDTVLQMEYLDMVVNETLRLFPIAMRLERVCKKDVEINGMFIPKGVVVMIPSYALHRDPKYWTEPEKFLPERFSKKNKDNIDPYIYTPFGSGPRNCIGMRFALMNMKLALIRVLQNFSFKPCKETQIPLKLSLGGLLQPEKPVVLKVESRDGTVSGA

[2] = Ratio of unbound drug level in Sprague-Dawley rat brain to plasma at 1 to 10 mg/kg, po by LC-MS/MS analysis; assay type: ADME, organism-based; conditions: dose 1-10 mg/kg, read-out: K(p,uu,brain)
CYP1A2 = target: T2, CYP1A2 (Homo sapiens, UniProt P05177); assay: Activation of CYP1A2 in human hepatocyte using phenacetin as substrate preincubated for 5 days followed by substrate addition and measured after 1 hr by LC-MS/MS analysis relative to control; assay type: ADME, cell-based; conditions: hepatocytes, probe phenacetin, time 121 hrs
T2 sequence (P05177 whole entry): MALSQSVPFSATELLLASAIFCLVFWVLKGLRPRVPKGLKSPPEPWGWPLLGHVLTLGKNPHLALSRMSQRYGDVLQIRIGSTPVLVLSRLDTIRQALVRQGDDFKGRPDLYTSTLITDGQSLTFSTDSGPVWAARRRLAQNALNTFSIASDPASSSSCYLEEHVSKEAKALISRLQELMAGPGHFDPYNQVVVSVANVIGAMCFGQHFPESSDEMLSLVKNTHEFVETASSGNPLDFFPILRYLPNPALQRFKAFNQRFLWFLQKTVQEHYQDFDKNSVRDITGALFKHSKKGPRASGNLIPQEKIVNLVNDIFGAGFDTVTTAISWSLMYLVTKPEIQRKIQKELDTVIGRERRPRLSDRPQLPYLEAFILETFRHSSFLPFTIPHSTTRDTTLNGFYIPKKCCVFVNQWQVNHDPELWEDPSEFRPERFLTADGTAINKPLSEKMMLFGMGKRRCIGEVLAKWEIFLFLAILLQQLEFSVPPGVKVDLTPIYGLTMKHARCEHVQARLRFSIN

EC50 [1]: > 30 µM
Activity (Cytochrome P450 3A4): 43.7%
Kp uu [2]: 0.37
Emax at 1 h (CYP1A2): ≤ 1%
SMILES: COc1ccc(CNC(=O)c2sc3nnc(C)c(C)c3c2N)cc1F
